In patent US10532066B2, “Surfactant lipids, compositions thereof, and uses thereof” (National Jewish Health, priority 2007, dated 2020):

Legend:
Format in all cases: cell-based
RAW264.7 cells = assay: BODIPY-LPS association with RAW264.7 macrophages (FACScan); conditions: BODIPY-LPS 1 μg/ml, liposomes 200 μg/ml, 4 h
Description: FIG. 11. Anionic phospholipids block BODIPY-LPS association with RAW264.7 macrophages. Liposomes were prepared by bath-sonication at room temperature for 30 min. RAW264.7 cells (10^6/tube) were incubated either without or with 1 μg/ml BODIPY-LPS in the presence or absence of liposomes (200 μg/ml) at 4° C. for 4 h. Subsequently the cells were washed by centrifugation and the cell associated fluorescence was quantified by FACScan. […] In panel B the mean fluorescence intensity (MFI) ratio of cells plus LPS/cells without LPS is plotted against different phospholipid treatments. Values shown in B are means±SE for three independent experiments with duplicate determinations in each experiment. Significance—* p<0.05, ** p<0.01
RAW264.7 cells (10^6) were incubated with BODIPY-LPS (1 μg/ml) either with or without phospholipid liposomes (200 μg/ml) at 4° C. for 4 h. When liposomes were added, […] preceded the addition of fluorescent LPS. After the cells were washed with PBS by centrifugation, cell adherent fluorescence was determined using FACScan. Macrophages were counted for 20,000 cells and the graph was made by CellQuest software.

TLR3 = target: T1, TLR3 (Homo sapiens, UniProt O15455); assay: TLR agonist IL-8 production in BEAS2B epithelial cells, TLR3; set-up: endogenous in cells; host or cells: BEAS2B; conditions: poly IC, 48 h
T1 sequence (O15455 24-904): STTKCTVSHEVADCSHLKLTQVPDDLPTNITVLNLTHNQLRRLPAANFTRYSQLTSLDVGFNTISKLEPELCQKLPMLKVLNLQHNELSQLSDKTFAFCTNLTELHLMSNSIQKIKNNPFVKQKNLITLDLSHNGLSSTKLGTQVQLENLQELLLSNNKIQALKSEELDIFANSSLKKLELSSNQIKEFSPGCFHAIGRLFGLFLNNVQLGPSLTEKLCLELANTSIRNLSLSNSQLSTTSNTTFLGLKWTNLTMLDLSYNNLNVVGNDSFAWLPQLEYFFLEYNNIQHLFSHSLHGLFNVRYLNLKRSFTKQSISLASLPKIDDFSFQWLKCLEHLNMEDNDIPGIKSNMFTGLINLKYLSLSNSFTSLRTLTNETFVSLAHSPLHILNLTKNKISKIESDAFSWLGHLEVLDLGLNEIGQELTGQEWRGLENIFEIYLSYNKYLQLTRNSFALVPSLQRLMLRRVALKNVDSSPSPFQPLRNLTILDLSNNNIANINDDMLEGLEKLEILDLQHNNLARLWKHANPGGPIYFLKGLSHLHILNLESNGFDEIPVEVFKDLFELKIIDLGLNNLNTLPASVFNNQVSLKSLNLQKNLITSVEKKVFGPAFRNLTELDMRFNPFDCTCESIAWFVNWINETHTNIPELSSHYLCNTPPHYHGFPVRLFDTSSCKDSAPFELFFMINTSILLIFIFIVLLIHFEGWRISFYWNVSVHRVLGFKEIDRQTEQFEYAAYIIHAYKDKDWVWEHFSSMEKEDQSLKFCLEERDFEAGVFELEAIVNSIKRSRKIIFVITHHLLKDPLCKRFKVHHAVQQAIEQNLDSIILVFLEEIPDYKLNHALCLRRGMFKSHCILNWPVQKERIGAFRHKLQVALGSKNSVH
Description: (§1) In this experiment, multiple TLRs were stimulated with defined TLR agonists for 48 h, and the IL-8 production was measured. In each case, the maximal stimulation by agonist is set at 100% and the antagonism by POPG or PI is expressed as the relative % response. The Controls consist of no treatment, or treatment with POPG, or phosphatidylcholine (POPC), or phosphatidylinositol (PI), in the absence of agonist as indicated. The agonists for the TLRs consist of Pam3Cys for TLR1/2, Mycoplasma pneumoniae membranes as an agonist for TLR2, Mycoplasma fermentans derived MALP2 as an agonist for TLR 2/6, double stranded RNA (poly IC) for TLR3, and bacterial flagellin (Fla) as an agonist for TLR5.
(§2) Monolayers of BEAS2B cells were challenged with the TLR1/2 agonist, Pam3Cys (25 ug/ml); the TLR 2/6 agonist MALP2 (10 ng/ml); the TLR2 agonist mycoplasma membrane (Mem) (1 ug/ml); the TLR3 agonist, poly I:C (0.1 ug/ml); and the TLR5 agonist, flagellin (100 ng/ml). For each agonist parallel incubations were performed containing 200 ug/ml POPG as liposomes, or 200 ug/ml POPG as nanodises as indicated.

TLR1 = target: T2, TLR1 (Homo sapiens, UniProt Q15399); assay: TLR agonist IL-8 production in BEAS2B epithelial cells, TLR1; set-up: endogenous in cells; host or cells: BEAS2B; conditions: Pam3Cys, 48 h
T2 sequence (Q15399 25-786): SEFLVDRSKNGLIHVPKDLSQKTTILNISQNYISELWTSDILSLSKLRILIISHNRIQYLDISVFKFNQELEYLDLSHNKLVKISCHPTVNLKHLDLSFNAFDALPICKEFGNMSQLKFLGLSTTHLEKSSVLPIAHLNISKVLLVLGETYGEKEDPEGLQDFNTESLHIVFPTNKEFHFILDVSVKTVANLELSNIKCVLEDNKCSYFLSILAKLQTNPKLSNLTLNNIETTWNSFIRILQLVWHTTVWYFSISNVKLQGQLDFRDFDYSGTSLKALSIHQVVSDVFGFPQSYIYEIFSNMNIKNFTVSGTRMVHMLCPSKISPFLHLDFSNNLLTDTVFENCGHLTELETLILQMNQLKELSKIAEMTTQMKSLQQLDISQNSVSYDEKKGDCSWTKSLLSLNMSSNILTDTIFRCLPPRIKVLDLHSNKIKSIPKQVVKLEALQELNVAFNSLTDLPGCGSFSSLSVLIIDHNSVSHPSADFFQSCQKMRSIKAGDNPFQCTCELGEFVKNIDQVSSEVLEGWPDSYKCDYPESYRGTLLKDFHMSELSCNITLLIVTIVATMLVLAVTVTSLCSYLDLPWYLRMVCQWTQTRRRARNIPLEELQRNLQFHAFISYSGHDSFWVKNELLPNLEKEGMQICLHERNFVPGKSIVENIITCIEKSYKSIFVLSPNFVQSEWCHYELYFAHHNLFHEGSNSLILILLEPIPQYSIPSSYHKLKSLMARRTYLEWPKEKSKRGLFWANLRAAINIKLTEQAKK
Description: as §1, §2

TLR5 = target: T3, TLR5 (Homo sapiens, UniProt O60602); assay: TLR agonist IL-8 production in BEAS2B epithelial cells, TLR5; conditions: flagellin, 48 h
T3 construct: endogenous in cells; host or cells: BEAS2B
Description: as §1, §2

TLR6 = target: T4, TLR6 (Homo sapiens, UniProt Q9Y2C9); assay: TLR agonist IL-8 production in BEAS2B epithelial cells, TLR6; conditions: MALP2, 48 h
T4 construct: endogenous in cells; host or cells: BEAS2B
Description: as §1, §2

T3 sequence (O60602 21-858): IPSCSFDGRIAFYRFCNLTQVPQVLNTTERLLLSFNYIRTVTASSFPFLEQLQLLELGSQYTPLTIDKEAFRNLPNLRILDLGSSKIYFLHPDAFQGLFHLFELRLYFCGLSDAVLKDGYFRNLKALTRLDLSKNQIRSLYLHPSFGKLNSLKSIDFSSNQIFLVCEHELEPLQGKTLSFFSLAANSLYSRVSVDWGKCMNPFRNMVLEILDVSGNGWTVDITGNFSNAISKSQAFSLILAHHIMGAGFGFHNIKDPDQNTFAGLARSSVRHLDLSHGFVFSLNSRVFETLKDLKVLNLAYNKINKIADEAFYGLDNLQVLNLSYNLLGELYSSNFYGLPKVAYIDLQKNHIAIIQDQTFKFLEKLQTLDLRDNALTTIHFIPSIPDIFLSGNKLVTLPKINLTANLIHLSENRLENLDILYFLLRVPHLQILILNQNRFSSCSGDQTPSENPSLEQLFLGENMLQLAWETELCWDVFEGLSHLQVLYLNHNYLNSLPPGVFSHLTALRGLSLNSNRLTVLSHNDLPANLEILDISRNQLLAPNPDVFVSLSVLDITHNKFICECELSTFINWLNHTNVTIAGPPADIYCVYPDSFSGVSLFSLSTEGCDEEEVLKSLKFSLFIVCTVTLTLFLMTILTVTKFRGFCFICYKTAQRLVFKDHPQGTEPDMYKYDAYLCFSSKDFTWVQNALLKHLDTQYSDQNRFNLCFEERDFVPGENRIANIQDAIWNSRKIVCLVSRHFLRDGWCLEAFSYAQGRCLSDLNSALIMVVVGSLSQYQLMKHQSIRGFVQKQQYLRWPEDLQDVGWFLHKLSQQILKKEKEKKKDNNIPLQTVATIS
T4 sequence (Q9Y2C9 32-796): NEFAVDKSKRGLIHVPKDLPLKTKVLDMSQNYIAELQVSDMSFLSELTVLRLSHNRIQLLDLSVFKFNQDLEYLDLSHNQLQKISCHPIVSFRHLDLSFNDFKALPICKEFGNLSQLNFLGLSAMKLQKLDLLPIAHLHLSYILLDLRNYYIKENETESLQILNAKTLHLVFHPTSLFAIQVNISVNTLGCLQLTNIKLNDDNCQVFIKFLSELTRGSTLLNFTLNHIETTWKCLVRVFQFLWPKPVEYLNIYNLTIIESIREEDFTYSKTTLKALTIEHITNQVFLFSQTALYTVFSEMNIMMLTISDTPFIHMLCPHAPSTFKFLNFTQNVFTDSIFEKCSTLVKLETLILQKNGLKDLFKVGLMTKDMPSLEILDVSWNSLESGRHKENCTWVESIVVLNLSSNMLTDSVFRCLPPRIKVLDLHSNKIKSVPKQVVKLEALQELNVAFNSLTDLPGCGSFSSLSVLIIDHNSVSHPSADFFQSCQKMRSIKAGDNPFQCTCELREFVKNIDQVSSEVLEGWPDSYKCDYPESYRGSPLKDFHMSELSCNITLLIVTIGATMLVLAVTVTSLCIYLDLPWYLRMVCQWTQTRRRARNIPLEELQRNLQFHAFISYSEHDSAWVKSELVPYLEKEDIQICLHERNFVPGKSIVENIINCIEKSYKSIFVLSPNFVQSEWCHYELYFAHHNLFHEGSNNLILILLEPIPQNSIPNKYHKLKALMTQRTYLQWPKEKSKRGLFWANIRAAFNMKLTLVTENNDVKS

Compound | binding of BODIPY-LPS to the surface of macrophages (RAW264.7 cells) | activity of TLR3 (IL-8 production) (TLR3) | activity of TLR1 (IL-8 production) (TLR1) | activity of TLR5 (IL-8 production) (TLR5) | activity of TLR6 (IL-8 production) (TLR6)
CCCCCCCC/C=C\CCCCCCCC(=O)O[C@H](COC(=O)CCCCCCCCCCCCCCC)COP(=O)(O)OCC(O)CO (stereo partly shown) [POPG, palmitoyl-oleoyl-phosphatidylglycerol] | blocks the binding | inhibit | inhibit | not | inhibit
phosphatidylinositol [PI] | blocks the binding | inhibit | inhibit | not | inhibit
